Source: PubChem BioAssay (NCI)
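The concentration for 50% growth inhibition is given as GI50. TGI is the concentration that stops growth completely.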

Legend:
Experiment in all cases: NCI anticancer screen, dose series, 384-well format
[1] = tested on: LOX IMVI melanoma
[2] = tested on: SF-539 CNS
[3] = tested on: OVCAR-3 ovarian
[4] = tested on: OVCAR-4 ovarian
[5] = tested on: HOP-62 NSCLC
[6] = tested on: UACC-62 melanoma
[7] = tested on: CAKI-1 renal
[8] = tested on: MDA-MB-468 breast
[9] = tested on: ACHN renal
[10] = tested on: COLO 205 colon
[11] = tested on: SR leukemia
[12] = tested on: NCI-H226 lung
[13] = tested on: OVCAR-5 ovarian
[14] = tested on: SK-MEL-28 melanoma
[15] = tested on: SN12C renal
[16] = tested on: PC-3 prostate
[17] = tested on: SF-268 CNS
[18] = tested on: TK-10 renal
[19] = tested on: DU-145 prostate
[20] = tested on: SNB-75 CNS
[21] = tested on: MDA-MB-435 melanoma
[22] = tested on: HCT-116 colon
[23] = tested on: SK-MEL-5 melanoma
[24] = tested on: BT-549 breast
[25] = tested on: MALME-3M melanoma
[26] = tested on: NCI-H522 lung
[27] = tested on: EKVX NSCLC
[28] = tested on: MCF7 breast
[29] = tested on: NCI-H460 NSCLC
[30] = tested on: HCC-2998 colon
[31] = tested on: KM12 colon
[32] = tested on: A498 renal
[33] = tested on: UACC-257 melanoma
[34] = tested on: M14 melanoma
[35] = tested on: NCI-H322M lung
[36] = tested on: HL-60(TB) leukemia
[37] = tested on: SK-OV-3 ovarian
[38] = tested on: NCI/ADR-RES ovarian
[39] = tested on: MOLT-4 leukemia
[40] = tested on: MDA-MB-231 breast
[41] = tested on: U251 glioblastoma
[42] = tested on: HCT-15 colon
[43] = tested on: RPMI-8226 leukemia
[44] = tested on: A549 NSCLC
[45] = tested on: IGROV1 ovarian
[46] = tested on: HS 578T breast
[47] = tested on: NCI-H23 lung
[48] = tested on: SF-295 CNS

For `CC(C)(C)c1cnc(CSc2cnc(NC(=O)C3CCNCC3)s2)o1`, the GI50 [1] was 24.1 nM, the TGI [1] was 59.9 nM and the GI50 [2] was 35.4 nM. For the same molecule, the TGI [2] was 134 nM, the GI50 [3] was 46.4 nM and the TGI [3] was 221 nM. The GI50 [4] was 63.7 nM, the TGI [4] was 368 nM and the GI50 [5] was 66 nM. For the same molecule, the TGI [5] was 330 nM, the GI50 [6] was 47.3 nM and the TGI [6] was 191 nM. It also gave a GI50 [7] of 394 nM, a TGI [7] greater than 100000 nM and a GI50 [8] of 50.8 nM. The TGI [8] was 176 nM, the GI50 [9] was 950 nM and the TGI [9] was 34100 nM. The GI50 [10] was 25 nM, the TGI [10] was 62.8 nM and the GI50 [11] was 12.1 nM. It also gave a TGI [11] of 24.6 nM, a GI50 [12] of 188 nM and a TGI [12] of 680 nM. It also gave a GI50 [13] of 25.2 nM, a TGI [13] of 59.4 nM and a GI50 [14] of 120 nM. It also gave a TGI [14] of 285 nM, a GI50 [15] of 38.4 nM and a TGI [15] of 186 nM. For the same molecule, the GI50 [16] was 70.9 nM, the TGI [16] was 397 nM and the GI50 [17] was 41 nM. The TGI [17] was 264 nM, the GI50 [18] was 232 nM and the TGI [18] was 799 nM. For the same molecule, the GI50 [19] was 42 nM, the TGI [19] was 299 nM and the GI50 [20] was 124 nM. The TGI [20] was 278 nM, the GI50 [21] was 113 nM and the TGI [21] was 322 nM. For the same molecule, the GI50 [22] was 32.3 nM, the TGI [22] was greater than 100000 nM and the GI50 [23] was 109 nM. For the same molecule, the TGI [23] was 249 nM, the GI50 [24] was 114 nM and the TGI [24] was 277 nM. It also gave a GI50 [25] of 123 nM, a TGI [25] of 264 nM and a GI50 [26] of 147 nM. It also gave a TGI [26] of 306 nM, a GI50 [27] of 204 nM and a TGI [27] of 1070 nM. For the same molecule, the GI50 [28] was 29.8 nM, the TGI [28] was 16900 nM and the GI50 [29] was 68.6 nM. For the same molecule, the TGI [29] was 256 nM, the GI50 [30] was 51.8 nM and the TGI [30] was 208 nM. For the same molecule, the GI50 [31] was 35 nM, the TGI [31] was 13700 nM and the GI50 [32] was 240 nM. For the same molecule, the TGI [32] was 627 nM, the GI50 [33] was 166 nM and the TGI [33] was 350 nM. The GI50 [34] was 166 nM, the TGI [34] was 425 nM and the GI50 [35] was 38.1 nM. For the same molecule, the TGI [35] was 159 nM, the GI50 [36] was 14.3 nM and the TGI [36] was 27.5 nM. For the same molecule, the GI50 [37] was 192 nM, the TGI [37] was greater than 100000 nM and the GI50 [38] was 26300 nM. For the same molecule, the TGI [38] was greater than 100000 nM, the GI50 [39] was 37.4 nM and the TGI [39] was 104 nM. It also gave a GI50 [40] of 62.4 nM, a TGI [40] greater than 100000 nM and a GI50 [41] of 107 nM. For the same molecule, the TGI [41] was 547 nM, the GI50 [42] was 2450 nM and the TGI [42] was greater than 100000 nM. The GI50 [43] was 27.3 nM, the TGI [43] was 70.4 nM and the GI50 [44] was 101 nM. The TGI [44] was greater than 100000 nM, the GI50 [45] was 53.1 nM and the TGI [45] was 566 nM. It also gave a GI50 [46] of 136 nM, a TGI [46] of 431 nM and a GI50 [47] of 78.3 nM. The TGI [47] was 212 nM, the GI50 [48] was 373 nM and the TGI [48] was 27100 nM.
